The values that follow come from ChEMBL document CHEMBL5465560, “Selectivity Literature for EUbOPEN Chemogenomic Library” (2024).

Experiment [1] has as its target T1, Serine/threonine-protein kinase Nek10 (Homo sapiens) (UniProt Q6ZWH5).
T1 sequence (whole entry): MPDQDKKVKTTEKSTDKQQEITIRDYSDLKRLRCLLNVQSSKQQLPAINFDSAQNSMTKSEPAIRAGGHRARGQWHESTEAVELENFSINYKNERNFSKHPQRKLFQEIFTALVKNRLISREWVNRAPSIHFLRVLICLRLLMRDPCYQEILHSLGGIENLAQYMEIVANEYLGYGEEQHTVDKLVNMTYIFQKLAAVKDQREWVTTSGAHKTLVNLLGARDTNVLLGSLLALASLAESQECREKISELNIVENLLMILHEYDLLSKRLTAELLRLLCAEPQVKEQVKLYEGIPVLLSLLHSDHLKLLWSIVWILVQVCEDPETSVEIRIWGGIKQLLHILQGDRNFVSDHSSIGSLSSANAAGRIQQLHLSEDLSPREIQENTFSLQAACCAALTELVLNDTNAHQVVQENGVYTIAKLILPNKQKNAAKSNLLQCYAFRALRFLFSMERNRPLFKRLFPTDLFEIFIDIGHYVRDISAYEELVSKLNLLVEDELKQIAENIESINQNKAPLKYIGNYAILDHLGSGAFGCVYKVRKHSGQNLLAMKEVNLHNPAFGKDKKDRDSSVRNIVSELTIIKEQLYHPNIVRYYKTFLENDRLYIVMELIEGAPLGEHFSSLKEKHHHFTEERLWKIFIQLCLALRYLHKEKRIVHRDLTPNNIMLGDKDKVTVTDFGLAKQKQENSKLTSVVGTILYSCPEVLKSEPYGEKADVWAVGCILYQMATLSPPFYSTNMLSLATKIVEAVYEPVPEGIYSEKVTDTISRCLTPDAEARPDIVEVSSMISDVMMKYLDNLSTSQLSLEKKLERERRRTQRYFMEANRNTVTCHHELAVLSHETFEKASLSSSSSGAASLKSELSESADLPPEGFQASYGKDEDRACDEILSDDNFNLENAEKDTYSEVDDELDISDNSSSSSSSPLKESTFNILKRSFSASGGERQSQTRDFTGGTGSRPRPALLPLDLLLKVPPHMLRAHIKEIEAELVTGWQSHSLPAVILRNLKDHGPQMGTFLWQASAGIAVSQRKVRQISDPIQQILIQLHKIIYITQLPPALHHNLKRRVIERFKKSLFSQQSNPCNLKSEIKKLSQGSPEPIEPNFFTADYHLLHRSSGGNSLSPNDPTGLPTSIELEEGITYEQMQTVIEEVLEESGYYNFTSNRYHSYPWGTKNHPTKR
Put plainly: Selectivity interaction (Ambit KINOMEscan and KiNATiv profiling in Jurkat cells) EUB0000090b NEK10. The following applies: at 1 µM. The experiment is classed as cell-based.

The target in experiment [2] is Tyrosine-protein kinase Lck (Homo sapiens, UniProt P06239). Put plainly: Selectivity interaction (KinomeScan (DiscoverX)) EUB0001079a LCK. The note with it: at 1 µM.
Chain of Tyrosine-protein kinase Lck (P06239 2-509 limits assumed): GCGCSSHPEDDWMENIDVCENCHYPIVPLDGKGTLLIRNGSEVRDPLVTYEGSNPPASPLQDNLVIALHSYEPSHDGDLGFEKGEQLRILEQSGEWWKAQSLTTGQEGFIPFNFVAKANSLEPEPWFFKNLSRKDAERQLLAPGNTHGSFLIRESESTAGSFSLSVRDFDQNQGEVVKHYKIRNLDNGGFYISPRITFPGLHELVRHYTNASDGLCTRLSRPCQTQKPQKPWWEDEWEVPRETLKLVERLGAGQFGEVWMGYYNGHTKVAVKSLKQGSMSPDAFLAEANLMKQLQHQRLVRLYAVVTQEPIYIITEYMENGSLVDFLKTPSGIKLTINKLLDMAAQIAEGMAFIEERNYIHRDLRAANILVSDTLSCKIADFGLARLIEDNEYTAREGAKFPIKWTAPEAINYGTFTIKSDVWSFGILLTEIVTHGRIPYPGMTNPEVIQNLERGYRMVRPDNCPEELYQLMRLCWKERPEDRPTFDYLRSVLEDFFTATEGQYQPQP
In experiment [3] the target is Sodium-dependent dopamine transporter (Homo sapiens, UniProt Q01959). As to the kind of experiment: Selectivity interaction (Eurofins CEREP Diversity Profile (receptors and ion channels)) EUB0000279b SLC6A3. The following applies: at 10 µM.
Chain of Sodium-dependent dopamine transporter (Q01959 whole entry): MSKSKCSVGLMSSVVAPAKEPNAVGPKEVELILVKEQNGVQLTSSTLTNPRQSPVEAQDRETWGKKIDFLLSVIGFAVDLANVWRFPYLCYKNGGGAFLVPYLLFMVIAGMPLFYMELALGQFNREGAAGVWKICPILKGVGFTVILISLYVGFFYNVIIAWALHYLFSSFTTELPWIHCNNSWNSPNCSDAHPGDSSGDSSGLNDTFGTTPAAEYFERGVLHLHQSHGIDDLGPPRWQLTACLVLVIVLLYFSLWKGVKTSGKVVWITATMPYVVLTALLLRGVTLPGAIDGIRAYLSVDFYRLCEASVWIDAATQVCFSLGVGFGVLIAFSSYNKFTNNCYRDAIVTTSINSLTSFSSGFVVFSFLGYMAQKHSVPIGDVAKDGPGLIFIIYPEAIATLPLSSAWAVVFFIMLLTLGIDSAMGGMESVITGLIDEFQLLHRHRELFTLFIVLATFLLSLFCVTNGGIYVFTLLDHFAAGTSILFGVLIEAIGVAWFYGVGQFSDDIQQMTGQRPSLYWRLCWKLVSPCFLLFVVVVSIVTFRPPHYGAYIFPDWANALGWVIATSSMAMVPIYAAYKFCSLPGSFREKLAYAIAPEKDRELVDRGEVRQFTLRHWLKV
In experiment [4] the target is Serine/threonine-protein kinase OSR1 (Homo sapiens) (UniProt O95747). As to the kind of experiment: Selectivity interaction (KinomeScan (DiscoverX)) EUB0000045b OXSR1.
Chain of Serine/threonine-protein kinase OSR1 (Homo sapiens) (O95747 2-527 limits assumed): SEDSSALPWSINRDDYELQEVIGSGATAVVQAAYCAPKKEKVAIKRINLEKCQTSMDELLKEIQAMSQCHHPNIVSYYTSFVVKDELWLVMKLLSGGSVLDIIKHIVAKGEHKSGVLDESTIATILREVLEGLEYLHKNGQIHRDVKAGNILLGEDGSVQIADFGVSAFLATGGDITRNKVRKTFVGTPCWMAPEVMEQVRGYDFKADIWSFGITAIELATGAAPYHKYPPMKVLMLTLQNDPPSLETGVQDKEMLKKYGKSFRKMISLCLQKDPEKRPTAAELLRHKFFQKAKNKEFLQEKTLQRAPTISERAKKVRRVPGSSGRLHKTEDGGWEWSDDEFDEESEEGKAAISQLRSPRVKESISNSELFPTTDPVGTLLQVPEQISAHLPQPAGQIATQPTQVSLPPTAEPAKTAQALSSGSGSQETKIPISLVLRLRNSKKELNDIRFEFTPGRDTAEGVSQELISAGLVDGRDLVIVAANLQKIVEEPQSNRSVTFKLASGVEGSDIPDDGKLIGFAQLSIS
For experiment [5], the target named is T2, Mitogen-activated protein kinase kinase kinase 19 (Homo sapiens) (UniProt Q56UN5).
T2 sequence (whole entry): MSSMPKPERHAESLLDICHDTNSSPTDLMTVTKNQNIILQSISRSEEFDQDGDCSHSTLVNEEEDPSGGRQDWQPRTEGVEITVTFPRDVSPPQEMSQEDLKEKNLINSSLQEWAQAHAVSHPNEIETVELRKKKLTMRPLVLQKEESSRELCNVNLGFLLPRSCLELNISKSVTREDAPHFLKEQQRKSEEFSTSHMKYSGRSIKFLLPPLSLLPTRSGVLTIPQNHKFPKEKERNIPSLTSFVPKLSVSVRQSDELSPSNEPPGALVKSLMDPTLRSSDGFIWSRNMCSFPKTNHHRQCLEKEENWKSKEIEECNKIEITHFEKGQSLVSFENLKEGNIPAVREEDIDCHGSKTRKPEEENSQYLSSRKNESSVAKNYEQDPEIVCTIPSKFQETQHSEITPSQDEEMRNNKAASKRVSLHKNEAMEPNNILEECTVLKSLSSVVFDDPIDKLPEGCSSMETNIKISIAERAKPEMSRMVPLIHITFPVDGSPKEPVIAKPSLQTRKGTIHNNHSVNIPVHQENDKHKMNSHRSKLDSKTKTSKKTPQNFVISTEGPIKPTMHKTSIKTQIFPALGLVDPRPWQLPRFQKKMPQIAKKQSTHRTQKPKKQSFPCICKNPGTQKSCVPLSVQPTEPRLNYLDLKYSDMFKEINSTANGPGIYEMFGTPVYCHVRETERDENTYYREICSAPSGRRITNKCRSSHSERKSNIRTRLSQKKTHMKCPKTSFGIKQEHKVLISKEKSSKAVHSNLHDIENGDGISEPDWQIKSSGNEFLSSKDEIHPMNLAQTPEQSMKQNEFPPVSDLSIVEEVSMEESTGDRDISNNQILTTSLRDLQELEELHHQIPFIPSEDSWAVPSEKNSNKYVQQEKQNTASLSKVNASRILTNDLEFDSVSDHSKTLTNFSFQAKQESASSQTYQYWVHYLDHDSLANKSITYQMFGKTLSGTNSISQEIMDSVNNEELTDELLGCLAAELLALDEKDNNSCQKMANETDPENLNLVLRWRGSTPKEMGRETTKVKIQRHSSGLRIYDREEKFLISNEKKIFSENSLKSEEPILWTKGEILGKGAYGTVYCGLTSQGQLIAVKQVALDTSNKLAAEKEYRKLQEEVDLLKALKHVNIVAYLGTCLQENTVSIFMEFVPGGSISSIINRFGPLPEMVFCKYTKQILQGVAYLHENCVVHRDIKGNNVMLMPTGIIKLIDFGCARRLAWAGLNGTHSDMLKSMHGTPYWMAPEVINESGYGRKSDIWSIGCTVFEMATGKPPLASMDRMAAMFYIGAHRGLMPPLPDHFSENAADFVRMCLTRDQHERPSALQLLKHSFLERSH
Put plainly: Selectivity interaction (KinomeScan (DiscoverX)) EUB0000666a MAP3K19. The note with it: at 10 µM.

`CN(C)C/C=C/C(=O)Nc1ccc(C(=O)N2CCCC(Nc3ncc(Cl)c(-c4c[nH]c5ccccc45)n3)C2)cc1` (stereo unspecified) returned a % of control in experiment [1] of 100%.

In experiment [2], `Nc1cnc(N2CCc3cc(S(=O)(=O)Nc4c(F)cc(Cl)cc4F)cc(N4CCCC4=O)c32)nc1` [TP-020n] displayed a % of control of 100%.

Consider `CC(=O)c1cc(-c2ccccc2OCC2CC2)c2ncccn12`, for which the % of control in experiment [3] was 80%.

Consider `C=CC(=O)Nc1cc(-n2c(=O)ccc3cnc4ccc(-c5ccc(NS(C)(=O)=O)cc5)cc4c32)ccc1C`, for which the % of control in experiment [4] (at 1 µM) worked out at 100%; in experiment [4] (at 10 µM), 94%.

On to `O=C(NOC[C@H](O)CO)c1ccc(F)c(F)c1Nc1ccc(I)cc1F`, for which the % of control in experiment [5] amounted to 100%.
